In US6365549B2, “Methods of blocking an ethylene response in plants using cyclopropene derivatives” (North Carolina State University, priority 1999, dated 2002):

Assays:
Format in all cases: in vivo
banana [1] = test: Minimum concentration protecting bananas from 333 μl/l ethylene (compound on filter paper in 3-liter jar)
Protocol: To obtain the minimum concentration that protected bananas from 333 μl/l of ethylene, compounds according to the present invention were applied to bananas according to the method described herein. A known amount of the active compound was placed on filter paper in a 3-liter jar to facilitate evaporation into the vapor state. The compounds were applied in an ethyl ether solution because the amount used was potentially too small to apply unless they were in solution. The amount of ether (about 10 μl in 3 l) was without effect when applied alone on a banana contained in a 3-liter jar. The jar was sealed and the banana was removed after 4 hours of exposure. At the end of exposure, the banana was treated with 333 μl/l of ethylene in a 3-liter jar for 12-15 hours. It was then observed for ripening. The minimum concentration is the concentration that protected the bananas from 333 μl/l of ethylene. Ten microliters/liter of ethylene is usually considered to be a saturating amount. This procedure was repeated for 8-, 24- and 48-hour treatment times to determine the minimum concentration of active compounds of the present invention needed to provide protection from 333 μl/l of ethylene for a given treatment time.

banana [2] = test: Time of protection (insensitivity to ethylene) of bananas, compounds of the invention; settings: saturating amount (at least 10 times minimum) for 24 hours, daily challenge with 333 μl/l ethylene 12-15 hours
Protocol: To obtain the time of protection, bananas were exposed to a saturating amount of the compound for 24 hours (this was done as described in Example 1 above and at least 10 times the minimum protection amount was used). After exposure, bananas were removed from the jars and each day individual bananas were exposed to 333 μl/l of ethylene for 12-15 hours. The day the bananas responded to ethylene was recorded as the protection time.

[3] = test system: Patio variety tomato seedlings; test: Tomato epinasty test, volatile gas treatment; settings: Gas 10 ppm; ethylene 10 ppm v/v; scale of 0 to 10, 10 complete protection, 0 no protection
Protocol: The test procedure is designed to determine the ability of an compound according to the present invention to block the epinastic growth response induced by ethylene in tomato plants when the compound is administered either as a volatile gas or as a component of a spray solution. Treatment chambers are of an appropriate size for the test plants and are airtight. Each is fitted with a reusable septum to be used for injection of ethylene. Test plants are Patio variety tomato seedlings planted two plants per three inch square plastic pot. Volatile gas treatment entails placing two pots of Patio var. tomatoes into a polystyrene 4.8 L volume treatment chamber along with one-half (upper or lower section) of a 50×9 mm plastic Petri dish containing a Gelman filter pad. The appropriate amount of experimental compound, dissolved in 1.0 ml acetone, is pipetted onto the filter pad and the chamber immediately sealed. Four hours later ethylene gas equal to 10 ppm v/v final concentration is injected into the sealed chamber. Sixteen hours later the chambers are opened in an exhaust hood, allowed to air and the plants scored visually for the degree of protection against ethylene-induced epinasty conferred by the experimental compound when compared to ethylene treated and untreated controls on a scale of 0 to 10. A rating of 10 means complete protection. A rating of 0 means no protection from the effects of ethylene.

[4] = test system: Patio variety tomato seedlings; test: Tomato epinasty test, spray application treatment; settings: applied as a spray; ethylene 10 ppm v/v; scale of 0 to 10, 10 complete protection
Protocol: The test procedure is designed to determine the ability of an compound according to the present invention to block the epinastic growth response induced by ethylene in tomato plants when the compound is administered either as a volatile gas or as a component of a spray solution.
Treatment chambers are of an appropriate size for the test plants and are airtight. Each is fitted with a reusable septum to be used for injection of ethylene.
Test plants are Patio variety tomato seedlings planted two plants per three inch square plastic pot.
Spray application treatment entails using a DeVilbiss atomizer to completely cover all foliage and stems of two pots of Patio var. tomato plants with the appropriate amount of experimental compound dissolved in 10% acetone/90% water with 0.05% Silwett L-77 surfactant. Plants are air-dried in a drying hood for four hours then transferred to a 4.8 L polystyrene chamber which is sealed.
Ethylene gas equal to 10 ppm v/v final concentration is injected into the sealed chamber. Sixteen hours later the chambers are opened in an exhaust hood, allowed to air and the plants scored visually for the degree of protection against ethylene-induced epinasty conferred by the experimental compound when compared to ethylene treated and untreated controls on a scale of 0 to 10. A rating of 10 means complete protection. […]

[5] = Table 2 (values equal the 24-hour treatment of Table 1)
[6] = treatment time 4 hours, then 333 μl/l ethylene 12-15 hours
[7] = treatment time 8 hours, then 333 μl/l ethylene 12-15 hours
[8] = treatment time 24 hours, then 333 μl/l ethylene 12-15 hours
[9] = treatment time 48 hours, then 333 μl/l ethylene 12-15 hours

Compound	Minimum Concentration (banana [1]; [5]) [nl/l]	Minimum Concentration (banana [1]; [6]) [nl/l]	Minimum Concentration (banana [1]; [7]) [nl/l]	Minimum Concentration (banana [1]; [8]) [nl/l]	Minimum Concentration (banana [1]; [9]) [nl/l]	Time of Insensitivity (banana [2]) [days]	Protection against ethylene-induced epinasty, rating [3]	Protection against ethylene-induced epinasty, rating [4]
CCCCCCC1=CC1 [Compound 1, 1-Hexyl-cyclopropene]	0.4	12.0	0.8	0.4	0.3	20	10	
CCCCCC1=CCC1 [1-pentylcyclobutene]								10
CCCCCCCCC1=CC1 [Compound 23, 1-octylcyclopropene]	0.3	0.8	0.45	0.3	0.25	25	10	
CCCCC1=CCC1 [1-butylcyclobutene, reference compound]								5
